The results in this text go back to patent US20250215012A1, “IKZF2 DEGRADERS AND USES THEREOF” (REGENTS OF THE UNIVERSITY OF MICHIGAN, priority 2022, published 2025).

What is called Dmax is the largest share of the target that was removed. For orientation: DC50 means the concentration giving 50% degradation.

The test concerns the target IKZF2 (Homo sapiens (Human), UniProt Q96SW2+Q9UKS7). The test can be described thus: IKZF2 HiBiT Assay (Jurkat-IKZF2-HiBiT cell line). It counts as cell-based. To be noted: Jurkat-IKZF2-HiBiT cells, 24 hours; for Dmax: read-out: HiBit assay degradation analysis Dmax; for DC50: read-out: HiBit assay degradation analysis DC50. Here is the method: Degradation of IKZF2 protein is determined by IKZF2 HiBiT assay using the Jurkat-IKZF2-HiBiT (Promega) cell line. Briefly, cells are seeded in culture medium. Compounds are serially diluted in culture medium, and certain volume of the diluted compounds is added to the appropriate well of the plate. After the addition of compounds, the cells are incubated. At the end of treatment, Nano-Glo HiBiT Lytic Detection Reagent (Promega) is added to each well, and then the plates are incubated at room temperature for a certain time period. The luminescent signal is measured using a CALRIOstar plate reader (BMG Labtech). The readings are normalized to the DMSO-treated cells and the IC50 is calculated by nonlinear regression (four parameters sigmoid fitted with variable slope, least squares fit, and no constraint) analysis using the GraphPad Prism 8 software.
Degradation of IKZF2 protein was determined by IKZF2 HiBiT assay using the Jurkat-IKZF2-HiBiT (Promega) cell line. […] Compounds were serially diluted in culture medium, and 20 μl of the diluted compounds were added to the appropriate wells of the plate. After the addition of compounds, the cells were incubated at 37° C. in an atmosphere of 5% CO2 for 24 hours. At the end of treatment, 40 ul of Nano-Glo HiBiT Lytic Detection Reagent (Promega) was added to each well, and then the plates were incubated at room temperature for 10-20 minutes. The luminescent signal was measured using a CALRIOstar plate reader (BMG Labtech). The readings were normalized to the DMSO-treated cells and the IC50 was calculated by nonlinear regression (four parameters sigmoid fitted with variable slope, least squares fit, and no constraint) analysis using the GraphPad Prism 8 software.

Bounds are passed on as bounds.

IKZF2, sequence (Q9UKS7 whole entry): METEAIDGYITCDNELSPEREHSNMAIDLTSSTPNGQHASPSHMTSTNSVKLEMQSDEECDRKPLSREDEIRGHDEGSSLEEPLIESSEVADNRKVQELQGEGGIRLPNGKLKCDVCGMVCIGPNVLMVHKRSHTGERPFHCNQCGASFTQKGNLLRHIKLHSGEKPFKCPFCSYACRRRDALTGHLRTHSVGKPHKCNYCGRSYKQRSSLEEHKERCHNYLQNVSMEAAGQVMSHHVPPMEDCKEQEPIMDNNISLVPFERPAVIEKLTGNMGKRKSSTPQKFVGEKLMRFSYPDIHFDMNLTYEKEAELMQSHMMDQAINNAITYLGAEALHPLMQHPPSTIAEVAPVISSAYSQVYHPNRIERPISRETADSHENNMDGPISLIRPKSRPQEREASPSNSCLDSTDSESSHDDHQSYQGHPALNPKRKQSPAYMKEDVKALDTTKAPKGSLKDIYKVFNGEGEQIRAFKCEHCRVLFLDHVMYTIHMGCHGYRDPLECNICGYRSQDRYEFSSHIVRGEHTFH
IKZF2, sequence (Q96SW2 whole entry): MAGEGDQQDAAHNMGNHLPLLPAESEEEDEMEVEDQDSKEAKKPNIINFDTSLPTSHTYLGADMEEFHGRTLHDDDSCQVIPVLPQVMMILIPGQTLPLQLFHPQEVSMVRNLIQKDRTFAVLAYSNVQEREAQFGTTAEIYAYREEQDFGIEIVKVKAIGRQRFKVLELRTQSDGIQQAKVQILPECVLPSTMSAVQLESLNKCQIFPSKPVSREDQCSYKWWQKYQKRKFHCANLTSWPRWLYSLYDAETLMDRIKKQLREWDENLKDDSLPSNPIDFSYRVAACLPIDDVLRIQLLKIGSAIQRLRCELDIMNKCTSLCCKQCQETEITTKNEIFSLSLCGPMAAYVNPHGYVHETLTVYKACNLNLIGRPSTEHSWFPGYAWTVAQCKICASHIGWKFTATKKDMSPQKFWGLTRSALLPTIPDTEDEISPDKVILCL
IKZF2, sequence (Q16531 whole entry partner): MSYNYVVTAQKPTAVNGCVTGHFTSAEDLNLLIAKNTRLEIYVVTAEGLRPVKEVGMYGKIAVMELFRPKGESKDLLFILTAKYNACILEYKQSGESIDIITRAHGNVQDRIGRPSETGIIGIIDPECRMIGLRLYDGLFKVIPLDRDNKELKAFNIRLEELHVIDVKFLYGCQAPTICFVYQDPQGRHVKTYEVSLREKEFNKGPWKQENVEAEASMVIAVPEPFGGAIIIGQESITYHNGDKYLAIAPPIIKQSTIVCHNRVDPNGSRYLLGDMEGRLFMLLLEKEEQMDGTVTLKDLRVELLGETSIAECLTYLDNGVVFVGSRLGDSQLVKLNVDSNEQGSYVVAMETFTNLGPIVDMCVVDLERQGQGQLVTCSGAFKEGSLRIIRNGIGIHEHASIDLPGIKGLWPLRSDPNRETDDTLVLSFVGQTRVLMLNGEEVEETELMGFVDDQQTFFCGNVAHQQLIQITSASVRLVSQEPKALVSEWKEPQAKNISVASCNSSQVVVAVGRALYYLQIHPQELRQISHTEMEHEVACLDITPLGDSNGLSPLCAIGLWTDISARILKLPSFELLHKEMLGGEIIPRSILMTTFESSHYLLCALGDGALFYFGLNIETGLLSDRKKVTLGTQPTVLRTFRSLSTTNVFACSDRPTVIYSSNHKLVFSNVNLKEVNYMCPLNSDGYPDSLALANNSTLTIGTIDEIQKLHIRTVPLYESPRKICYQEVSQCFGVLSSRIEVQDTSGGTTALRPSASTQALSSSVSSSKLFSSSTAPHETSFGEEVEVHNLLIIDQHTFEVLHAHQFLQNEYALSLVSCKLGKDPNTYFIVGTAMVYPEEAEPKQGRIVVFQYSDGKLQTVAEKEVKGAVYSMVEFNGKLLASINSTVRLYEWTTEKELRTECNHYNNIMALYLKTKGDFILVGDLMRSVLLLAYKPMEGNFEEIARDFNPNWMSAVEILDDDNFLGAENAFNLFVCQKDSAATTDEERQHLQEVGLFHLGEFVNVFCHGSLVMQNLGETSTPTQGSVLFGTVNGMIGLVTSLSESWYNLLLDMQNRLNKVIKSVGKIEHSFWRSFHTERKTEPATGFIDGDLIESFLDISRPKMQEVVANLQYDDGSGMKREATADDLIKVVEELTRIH

Consider `O=C1CC[C@H](N2Cc3c(ccc4c3OCC43CCN(Cc4cnn(S(=O)(=O)c5ccc(F)cc5)c4)CC3)C2=O)C(=O)N1` [Compound A354, (S)-3-(1′-((1-((4-fluorophenyl)sulfonyl)-1H-pyrazol-4-yl)methyl)-6-oxo-6,8-dihydro-2H,7H-spiro[furo[2,3-e]isoindole-3,4′-piperidin]-7-yl)piperidine-2,6-dione], for which the Dmax was 40 to 60%.

For `O=C1CCC(N2Cc3c(ccc4c3OCC43CCN(Cc4ccc5c(cnn5CCO)c4)CC3)C2=O)C(=O)N1` (stereo not drawn) [Compound A344, 3-(1′-((1-(2-hydroxyethyl)-1H-indazol-5-yl)methyl)-6-oxo-6,8-dihydro-2H,7H-spiro[furo[2,3-e]isoindole-3,4′-piperidin]-7-yl)piperidine-2,6-dione], the 50% degradation concentration (DC50) is > 500 nM and the Dmax lay in the range of 40 to 60%. The like results for `Cn1cnc2ccc(CN3CCC4(CC3)COc3c4ccc4c3CN(C3CCC(=O)NC3=O)C4=O)cc21` (stereo not drawn) [Compound A72, 3-(1′-((1-methyl-1H-benzo[d]imidazol-6-yl)methyl)-6-oxo-6,8-dihydro-2H,7H-spiro[furo[2,3-e]isoindole-3,4′-piperidin]-7-yl)piperidine-2,6-dione] were, in that order, > 500 nM and 40 to 60%. The like results for `O=C1CCC(N2Cc3c(ccc4c3OCC43CCN(Cc4cccnc4Cl)CC3)C2=O)C(=O)N1` (stereo not drawn) [Compound A249, 3-(1′-((2-chloropyridin-3-yl)methyl)-6-oxo-6,8-dihydro-2H,7H-spiro[furo[2,3-e]isoindole-3,4′-piperidin]-7-yl)piperidine-2,6-dione] were, in that order, > 500 nM and < 40%. The like results for `O=C1CC[C@H](N2Cc3c(ccc4c3OCC43CCN(Cc4cccc(-c5cnn(C(F)F)c5)c4)CC3)C2=O)C(=O)N1` [Compound A281, (S)-3-(1′-(3-(1-(difluoromethyl)-1H-pyrazol-4-yl)benzyl)-6-oxo-6,8-dihydro-2H,7H-spiro[furo[2,3-e]isoindole-3,4′-piperidin]-7-yl)piperidine-2,6-dione] were, in that order, < 50 nM and > 80%. In the case of `CCc1ccc(CN2CCC3(CC2)COc2c3ccc3c2CN(C2CCC(=O)NC2=O)C3=O)cc1` (stereo not drawn) [Compound A16, 3-(1′-(4-ethylbenzyl)-6-oxo-6,8-dihydro-2H,7H-spiro[furo[2,3-e]isoindole-3,4′-piperidin]-7-yl)piperidine-2,6-dione], the DC50 is > 500 nM and the maximal degradation (Dmax) was < 40%. The like results for `O=C1CCC(N2Cc3c(ccc4c3OCC43CCN(Cc4cnn(CC5COC5)c4)CC3)C2=O)C(=O)N1` (stereo not drawn) [Compound A319, 3-(1′-((1-(oxetan-3-ylmethyl)-1H-pyrazol-4-yl)methyl)-6-oxo-6,8-dihydro-2H,7H-spiro[furo[2,3-e]isoindole-3,4′-piperidin]-7-yl)piperidine-2,6-dione] were, in that order, > 500 nM and < 40%. The like results for `O=C1CC[C@H](N2Cc3c(ccc4c3OCC43CCN(C4Cc5ccccc5C4)CC3)C2=O)C(=O)N1` [Compound A275, (S)-3-(1′-(2,3-dihydro-1H-inden-2-yl)-6-oxo-6,8-dihydro-2H,7H-spiro[furo[2,3-e]isoindole-3,4′-piperidin]-7-yl)piperidine-2,6-dione] were, in that order, > 500 nM and 40 to 60%. The like results for `O=C1CCC(N2Cc3c(ccc4c3OCC43CCN(Cc4cnn(C5CC5)c4)CC3)C2=O)C(=O)N1` (stereo not drawn) [Compound A230, 3-(1′-((1-cyclopropyl-1H-pyrazol-4-yl)methyl)-6-oxo-6,8-dihydro-2H,7H-spiro[furo[2,3-e]isoindole-3,4′-piperidin]-7-yl)piperidine-2,6-dione] were, in that order, > 500 nM and 40 to 60%.

Take `O=C1CCC(N2Cc3c(ccc4c3OCC43CCN(Cc4cccc(-c5nccs5)c4)CC3)C2=O)C(=O)N1` (stereo not drawn) [Compound A106, 3-(6-oxo-1′-(3-(thiazol-2-yl)benzyl)-6,8-dihydro-2H,7H-spiro[furo[2,3-e]isoindole-3,4′-piperidin]-7-yl)piperidine-2,6-dione]: the half-maximal degradation concentration (DC50) is < 50 nM and the Dmax is 60 to 80%. The like results for `O=C1CCC(N2Cc3c(ccc4c3OCC43CCN(Cc4nccc5c4CCCC5)CC3)C2=O)C(=O)N1` (stereo not drawn) [Compound A324, 3-(6-oxo-1′-((5,6,7,8-tetrahydroisoquinolin-1-yl)methyl)-6,8-dihydro-2H,7H-spiro[furo [2,3-e]isoindole-3,4′-piperidin]-7-yl)piperidine-2,6-dione] were, in that order, > 500 nM and 40 to 60%. With `CCn1ncc2ccc(CN3CCC4(CC3)COc3c4ccc4c3CN([C@H]3CCC(=O)NC3=O)C4=O)cc21` [Compound A298, (S)-3-(1′-((1-ethyl-1H-indazol-6-yl)methyl)-6-oxo-6,8-dihydro-2H,7H-spiro[furo[2,3-e]isoindole-3,4′-piperidin]-7-yl)piperidine-2,6-dione], the DC50 was in the range of 50 to 200 nM and the Dmax fell in the range of 60 to 80%.

In the case of `O=C1CC[C@H](N2Cc3c(ccc4c3OCC43CCN(Cc4cnn(CC5C[C@@H]5c5ccccc5)c4)CC3)C2=O)C(=O)N1` (stereo partly drawn) [Compound A347, (S)-3-(6-oxo-1′-((1-(((1S,2S)-2-phenylcyclopropyl)methyl)-1H-pyrazol-4-yl)methyl)-6,8-dihydro-2H,7H-spiro[furo[2,3-e]isoindole-3,4′-piperidin]-7-yl)piperidine-2,6-dione], the DC50 is < 50 nM. Take `COc1cc(CN2CCC3(CC2)COc2c3ccc3c2CN([C@H]2CCC(=O)NC2=O)C3=O)cc(-c2cnn(C)c2)c1` [Compound A280, (S)-3-(1′-(3-methoxy-5-(1-methyl-1H-pyrazol-4-yl)benzyl)-6-oxo-6,8-dihydro-2H,7H-spiro[furo[2,3-e]isoindole-3,4′-piperidin]-7-yl)piperidine-2,6-dione]: the 50% degradation concentration (DC50) is < 50 nM and the maximal degradation (Dmax) is > 80%. As for `O=C1CCC(N2Cc3c(ccc4c3OCC43CCN(Cc4cnn(S(=O)(=O)c5ccc(F)c(F)c5)c4)CC3)C2=O)C(=O)N1` [Compound A353, (S)-3-(1′-((1-((3,4-difluorophenyl)sulfonyl)-1H-pyrazol-4-yl)methyl)-6-oxo-6,8-dihydro-2H,7H-spiro[furo[2,3-e]isoindole-3,4′-piperidin]-7-yl)piperidine-2,6-dione], the 50% degradation concentration (DC50) is > 500 nM.

In the case of `Cn1cc(-c2cccc(CN3CCC4(CC3)OCc3c4ccc4c3CN(C3CCC(=O)NC3=O)C4=O)c2)cn1` (stereo not drawn) [Compound A259, 3-(1′-(3-(1-methyl-1H-pyrazol-4-yl)benzyl)-6-oxo-6,8-dihydrospiro[furo[3,4-e]isoindoline-3,4′-piperidin]-7(1H)-yl)piperidine-2,6-dione], the DC50 was > 500 nM and the maximal degradation (Dmax) lay in the range of 40 to 60%. The like results for `O=C1CCC(N2Cc3c(ccc4c3OCC43CCN(Cc4ccccc4Oc4ccccc4)CC3)C2=O)C(=O)N1` (stereo not drawn) [Compound A100, 3-(6-oxo-1′-(2-phenoxybenzyl)-6,8-dihydro-2H,7H-spiro[furo[2,3-e]isoindole-3,4′-piperidin]-7-yl)piperidine-2,6-dione] were, in that order, > 500 nM and < 40%. The like results for `CCC(c1ccccc1)N1CCC2(CC1)COc1c2ccc2c1CN(C1CCC(=O)NC1=O)C2=O` (stereo not drawn) [Compound A330, 3-(6-oxo-1′-(1-phenylpropyl)-6,8-dihydro-2H,7H-spiro[furo[2,3-e]isoindole-3,4′-piperidin]-7-yl)piperidine-2,6-dione] were, in that order, < 50 nM and 60 to 80%.
